This note sets out measurements from patent US20180200233A1, “COMPOSITIONS FOR PREVENTING CANCERS ASSOCIATED WITH HUMAN PAPILLOMA VIRUSES” (Loma Linda University, priority 2015, published 2018).

In one experiment the target is T1, GST-E6/His-E6AP (Human papillomavirus type 16, UniProt P03126).
T1 construct: made in house
Put plainly: AlphaScreen bead-based assay, GST-E6/His-E6AP binding. More on the design: species or system HPV 16. Here is the method:
FIGS. 2A-C are graphs providing data regarding inhibition of protein-protein interactions by 3-(1H-indol-1yl)propan-1-amine (1), three benzimidazole derivatives (2-4), and spinacine (5). Compounds, at the indicated concentrations (1.4 μM to 3.2 mM) were tested using a bead-based screening assay for their ability to inhibit three different protein/protein interactions: (FIG. 2A) GST-E6/His-caspase 8; (FIG. 2B) GST-E6/HisE6AP; and (FIG. 2C) GST-caspase 8/His-caspase 8. Binding in the presence of 1.4 μM of the test compound was set at 100%. Experiments were performed in triplicate, and error bars indicate the standard deviation.
To determine the dose-responsiveness of these five compounds, variable concentrations of those small molecules were first tested for their ability to inhibit E6/caspase binding. […] These molecules, which had been selected for their ability to interfere with E6/caspase 8 binding, were then tested to determine if they could also affect other interactions of E6, such as its binding to E6-associated protein (E6AP). The E6/E6AP interaction is required for the E6-mediated acceleration of p53 degradation (Huibregtse, J. M., M. Scheffner, and P. M. Howley, A cellular protein mediates association of p53 with the E6 oncoprotein of human papillomavirus types 16 or 18. The EMBO journal, 1991. 10(13): p. 4129-35).
Alpha-Screen™ technology was used to assess the interactions between GST-E6, GST-caspase 8, His-E6AP, and His-caspase 8. Binding assays were performed in white 384-well plates (Perkin-Elmer) in a total volume of 25 μl as previously described (Tungteakkhun, S. S., et al., The interaction between human papillomavirus type 16 and FADD is mediated by a novel E6 binding domain. Journal of virology, 2008. 82(19): p. 9600-14). Briefly, 5 μl (50 ng) of GST-E6 and 5 μl (87.5 ng) of His-caspase 8 were included in each reaction mixture with 5 μl blocking buffer (0.5 mg BSA, 0.5% Tween 20 in PBS) in the absence or presence of 10 μM of each test chemical. Members of the library were present at […] in DMSO. After a one-hour incubation of the mixture at room temperature, 5 μl donor beads and 5 μl acceptor beads (Perkin-Elmer) were added to each well according to the manufacturer's protocol. The mixture was incubated in the dark at room temperature overnight, and the emitted signal was detected using the Envision Multilabel plate reader (Perkin-Elmer). In the presence of test chemicals, the binding affinity was calculated as a percentage of the binding in the presence of carrier only (DMSO).
(In general: In Alpha technology, singlet oxygen from a donor bead excites a nearby acceptor bead.)

For the next experiment, the system named is SCC84 (#84) cells. As to the kind of experiment: MTT cell viability, HPV- HNSCC cell line #84 with TRAIL. Type of experiment: cell-based. Particulars: 50 ng/ml TRAIL with myricetin 0-200 μM or spinacine 0-100 μM. The procedure: FIGS. 7A-E are graphs showing myricetin and spinacine (5) re-sensitized HPV^+, but not HPV^−, head and neck cancer cell lines to treatment with TRAIL. (FIG. 7A) Both HPV^− and HPV^+ HN cancer cell lines display resistance to TRAIL treatment. HPV^− (#84) (Myricetin—FIG. 7B; Spinacine—FIG. 7C) and HPV^+ (#90) (FIG. 7D; Spinacine—FIG. 7E) head and neck cancer cell lines (2×10^4 cells per well) were seeded into 96-well plates and allowed to incubate overnight, then cells were pre-treated with myricetin (0-200 μM) or spinacine (0-100 μM) for 4 h. […] Cell viability was measured by the MTT assay, and the viability of cells untreated with small molecules was set at 100%. Experiments were performed in triplicate, and error bars indicate the standard deviation.
As shown above, myricetin and spinacine sensitize SiHa cells to TRAIL and chemotherapy drugs. […] Other types of HPV^+ cancer cells were examined, and in particular, head and neck squamous cell carcinoma (HNSCC) cells can also be sensitized in this manner. […]
The extracellular domain of human TRAIL was cloned into a pTriEx expression plasmid containing N-terminal Hisx6 tag. […] All experiments were repeated at least three times (three biological replicates, carried out on different days), with each experimental group measured in triplicate within each of these individual experiments. […]

T1 sequence (P03126 whole entry): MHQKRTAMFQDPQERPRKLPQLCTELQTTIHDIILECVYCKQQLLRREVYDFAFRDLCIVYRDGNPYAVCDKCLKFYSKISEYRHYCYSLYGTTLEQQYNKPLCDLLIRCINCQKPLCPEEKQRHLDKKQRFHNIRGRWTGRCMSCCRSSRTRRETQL

Consider `OCn1cnc2ccccc21` [Compound 3, 1H-benzimidazole-1-methanol], for which, at GST-E6/His-E6AP (bead-based assay, compounds tested 1.4 μM to 3.2 mM), the “EC50 for GST-E6/His-E6AP interaction” value is “No Inhibition”.
For `O=C(O)C1Cc2[nH]cnc2CN1` (stereo not shown) [Compound 5, 4,5,6,7-Tetrahydro-1H-imidazo(4,5-c)pyridine-6-carboxylic acid], the “inhibition of E6/E6AP interaction (in words)” value on GST-E6/His-E6AP (FIG. 2B) is listed as “could also inhibit the E6/E6AP interaction”. Moreover, the “response of HPV- HNSCC cell line #84 to TRAIL (in words)” value in the experiment on SCC84 (#84) cells was “resistant”.
`O=c1c(O)c(-c2cc(O)c(O)c(O)c2)oc2cc(O)cc(O)c12` [Myricetin, reference compound]: the “response of HPV- HNSCC cell line #84 to TRAIL (in words)” value with SCC84 (#84) cells is “resistant”.
